US6737383B1, “Herbicidal oxadiazolidines” (priority 1999, dated 2004)

Assays:
[1] = test system: velvetleaf; experiment: Test B pre/postemergence velvetleaf; format: in vivo, Abutilon theophrasti
Outline: (§1)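 Test chemicals in a non-phytotoxic solvent mixture with surfactant were sprayed preemergence onto planted seeds and postemergence onto plants 2 to 18 cm tall (1- to 4-leaf stage). After twelve to sixteen days in a greenhouse, injury was visually rated against untreated controls from 0 (no effect) to 10 (complete control).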

[2] = test system: bamyardgrass; experiment: Test B flood test barnyardgrass; format: in vivo, Echinochloa crus-galli
Outline: (§2)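 Plants were grown to the 2-leaf stage before treatment with test chemical, then held in a greenhouse for twelve to sixteen days. Injury was visually rated against untreated controls on a 0–10 scale, where 0 is no effect and 10 is complete control.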

[3] = test system: smallflower flatsedge; experiment: Test B flood test smallflower flatsedge; format: in vivo, Cyperus difformis
Outline: as §2

[4] = test system: blackgrass; experiment: Test B pre/postemergence blackgrass; format: in vivo, Alopecurus myosuroides
Outline: as §1

[5] = test system: pigweed; experiment: Test B pre/postemergence pigweed; format: in vivo, Amaranthus retroflexus
Outline: as §1

[6] = test system: rape; experiment: Test B pre/postemergence rape; format: in vivo, Brassica napus
Outline: as §1

[7] = test system: wheat; experiment: Test B pre/postemergence wheat; format: in vivo, Triticum aestivum
Outline: as §1

[8] = test system: duck salad; experiment: Test B flood test duck salad; format: in vivo, Heteranthera limosa
Outline: as §2

[9] = test system: purple nutsedge; experiment: Test B pre/postemergence purple nutsedge; format: in vivo, Cyperus rotundus
Outline: as §1

[10] = test system: cocklebur; experiment: Test B pre/postemergence cocklebur; format: in vivo, Xanthium strumarium
Outline: as §1

[11] = test system: surinam grass; experiment: Test B pre/postemergence surinam grass; format: in vivo, Brachiaria decumbens
Outline: as §1

[12] = test system: bedstraw; experiment: Test B pre/postemergence bedstraw; format: in vivo, Galium aparine; conditions: Preemergence, scale of 0 to 10 where 0 is no effect and 10 is complete control
Outline: as §1

[13] = test system: corn; experiment: Test B pre/postemergence corn; format: in vivo, Zea mays
Outline: as §1

[14] = test system: rice; experiment: Test B flood test rice; format: in vivo, Oryza sativa
Outline: as §2

[15] = test system: wild oat; experiment: Test B pre/postemergence wild oat; format: in vivo, Avena fatua
Outline: as §1

[16] = test system: morningglory; experiment: Test B pre/postemergence morningglory; format: in vivo, Ipomoea hederacea
Outline: as §1

[17] = Preemergence, Rate 62 g/ha, scale of 0 to 10 where 0 is no effect and 10 is complete control
[18] = Preemergence, Rate 250 g/ha, scale of 0 to 10 where 0 is no effect and 10 is complete control
[19] = Preemergence, Rate 500 g/ha, scale of 0 to 10 where 0 is no effect and 10 is complete control
[20] = Rate 62 g/ha, Postemergence, scale 0 to 10 (0 no effect, 10 complete control)
[21] = Rate 125 g/ha, Postemergence, scale of 0 to 10 where 0 is no effect and 10 is complete control
[22] = Rate 125 g/ha, Preemergence, scale of 0 to 10 where 0 is no effect and 10 is complete control
[23] = Rate 250 g/ha, Postemergence, scale of 0 to 10 where 0 is no effect and 10 is complete control
[24] = Rate 500 g/ha, Postemergence, scale 0 to 10, 0 no effect, 10 complete control
[25] = Rate 62 g/ha, headed Pre-emergence (flood test species), scale 0 to 10 (0 no effect, 10 complete control)
[26] = Rate 125 g/ha, Pre-emergence, flood test species, scale 0 to 10 where 0 is no effect and 10 is complete control
[27] = Rate 250 g/ha, Pre-emergence, flood-test species, scale 0 to 10, 0 is no effect, 10 is complete control
[28] = Rate 500 g/ha, Pre-emergence, flood test species, scale 0 to 10 (0 no effect, 10 complete control)

Structure (SMILES): CC1Cc2cccc(-n3c(=O)on(C(=O)N(c4ccc(F)cc4)C(C)C)c3=O)c2O1 (stereo not drawn) [Compound 281]
- Velvetleaf plant response rating [1, 17]: 0
- Velvetleaf plant response rating [1, 18]: 0
- Plant response rating, Velvetleaf [1, 19]: 0
- Velvetleaf plant response rating [1, 20]: 0
- Velvetleaf plant response rating [1, 21]: 1
- Velvetleaf plant response rating [1, 22]: 0
- Plant response rating, Velvetleaf [1, 23]: 1
- Velvetleaf plant response rating [1, 24]: 1
- Barnyardgrass plant response rating [2, 25]: 0
- Barnyardgrass plant response rating [2, 26]: 0
- Barnyardgrass plant response rating [2, 27]: 4
- Barnyardgrass plant response rating [2, 28]: 2
- S. Flatsedge plant response rating [3, 25]: 0
- S. Flatsedge plant response rating [3, 26]: 0
- S. Flatsedge plant response rating [3, 27]: 0
- S. Flatsedge plant response rating [3, 28]: 0
- Blackgrass plant response rating [4, 17]: 0
- Blackgrass plant response rating [4, 18]: 2
- Plant response rating, Blackgrass [4, 19]: 4
- Blackgrass plant response rating [4, 20]: 0
- Blackgrass plant response rating [4, 21]: 0
- Blackgrass plant response rating [4, 22]: 1
- Plant response rating, Blackgrass [4, 23]: 0
- Blackgrass plant response rating [4, 24]: 2
- Redroot pigweed plant response rating [5, 17]: 0
- Redroot pigweed plant response rating [5, 18]: 0
- Plant response rating, Redroot pigweed [5, 19]: 0
- Redroot pigweed plant response rating [5, 20]: 0
- Redroot pigweed plant response rating [5, 21]: 2
- Redroot pigweed plant response rating [5, 22]: 0
- Plant response rating, Redroot pigweed [5, 23]: 5
- Redroot pigweed plant response rating [5, 24]: 6
- Rape plant response rating [6, 17]: 0
- Rape plant response rating [6, 18]: 0
- Plant response rating, Rape [6, 19]: 0
- Rape plant response rating [6, 20]: 0
- Rape plant response rating [6, 21]: 0
- Rape plant response rating [6, 22]: 0
- Plant response rating, Rape [6, 23]: 0
- Rape plant response rating [6, 24]: 0
- Wheat plant response rating [7, 17]: 0
- Wheat plant response rating [7, 18]: 0
- Plant response rating, Wheat [7, 19]: 0
- Wheat plant response rating [7, 20]: 0
- Wheat plant response rating [7, 21]: 0
- Wheat plant response rating [7, 22]: 0
- Plant response rating, Wheat [7, 23]: 0
- Wheat plant response rating [7, 24]: 0
- Ducksalad plant response rating [8, 25]: 0
- Ducksalad plant response rating [8, 26]: 0
- Ducksalad plant response rating [8, 27]: 0
- Ducksalad plant response rating [8, 28]: 0
- Nutsedge plant response rating [9, 17]: 0
- Nutsedge plant response rating [9, 18]: 0
- Plant response rating, Nutsedge [9, 19]: 0
- Nutsedge plant response rating [9, 20]: 0
- Nutsedge plant response rating [9, 21]: 0
- Nutsedge plant response rating [9, 22]: 0
- Plant response rating, Nutsedge [9, 23]: 0
- Nutsedge plant response rating [9, 24]: 0
- Cocklebur plant response rating [10, 18]: 0
- Plant response rating, Cocklebur [10, 19]: 0
- Cocklebur plant response rating [10, 20]: 0
- Cocklebur plant response rating [10, 21]: 0
- Plant response rating, Cocklebur [10, 23]: 0
- Cocklebur plant response rating [10, 24]: 0
- B. signalgrass plant response rating [11, 17]: 0
- B. signalgrass plant response rating [11, 18]: 0
- Plant response rating, B. signalgrass [11, 19]: 0
- B. signalgrass plant response rating [11, 20]: 0
- B. signalgrass plant response rating [11, 21]: 0
- B. signalgrass plant response rating [11, 22]: 0
- Plant response rating, B. signalgrass [11, 23]: 0
- B. signalgrass plant response rating [11, 24]: 0
- Bedstraw plant response rating ([12]; Rate 62 g/ha): 0
- Bedstraw plant response rating ([12]; Rate 250 g/ha): 6
- Plant response rating, Bedstraw ([12]; Rate 500 g/ha): 10
- Bedstraw plant response rating ([12]; Rate 125 g/ha): 3
- Corn plant response rating [13, 17]: 0
- Corn plant response rating [13, 18]: 0
- Plant response rating, Corn [13, 19]: 0
- Corn plant response rating [13, 20]: 0
- Corn plant response rating [13, 21]: 0
- Corn plant response rating [13, 22]: 0
- Plant response rating, Corn [13, 23]: 0
- Corn plant response rating [13, 24]: 0
- Rice plant response rating [14, 25]: 0
- Rice plant response rating [14, 26]: 0
- Rice plant response rating [14, 27]: 0
- Rice plant response rating [14, 28]: 0
- Wild oats plant response rating [15, 17]: 0
- Wild oats plant response rating [15, 18]: 2
- Plant response rating, Wild oats [15, 19]: 3
- Wild oats plant response rating [15, 20]: 0
- Wild oats plant response rating [15, 21]: 0
- Plant response rating, Wild oats [15, 23]: 0
- Wild oats plant response rating [15, 24]: 0
- Morningglory plant response rating [16, 17]: 0
- Morningglory plant response rating [16, 18]: 0
- Plant response rating, Morningglory [16, 19]: 0
- Morningglory plant response rating [16, 20]: 2
- Morningglory plant response rating [16, 21]: 2
- Morningglory plant response rating [16, 22]: 0
- Plant response rating, Morningglory [16, 23]: 3
- Morningglory plant response rating [16, 24]: 5
